Experimental data published in patent US8691761B2, “Somatostatin receptor 2 antagonists” (priority 2006, dated 2014).
Where two headings read alike, the source gives them in different places. Bridge positions count the residues as written; N and C are the ends. Square brackets hold non-standard residues; d marks the D form. Peptide text beside a SMILES is read from it. * marks the point of attachment. ξ: configuration not given here. Phe(4-NO2) = N[C@@H](Cc1ccc([N+](=O)[O-])cc1)C(=O)O; dPhe(4-NHCONH2) = NC(=O)Nc1ccc(C[C@@H](N)C(=O)O)cc1; Phe(4-NHCONH2) = NC(=O)Nc1ccc(C[C@H](N)C(=O)O)cc1; Trp(5-F) = N[C@@H](Cc1c[nH]c2ccc(F)cc12)C(=O)O; Phe(4-Cl) = N[C@@H](Cc1ccc(Cl)cc1)C(=O)O; ξDihydroorotoyl = O=C1CC(C(=O)*)NC(=O)N1; Phe(4-NH2) = Nc1ccc(C[C@H](N)C(=O)O)cc1; X1 = NC(=O)N[C@@H](Cc1ccc(Cl)cc1)C(=O)*; 2Nal = N[C@@H](Cc1ccc2ccccc2c1)C(=O)O

How the values were obtained:
Assay in all cases: Receptor autoradiography, displacement of 125I-[Leu8,D-Trp22,Tyr25]-SRIF-28 from membrane pellet sections
Format in all cases: binding
[1] = target: T1, hSSTR1 (Homo sapiens, UniProt P30872); settings: Table 3; mean ± SEM when N ≧ 3; read-out: sst1 binding affinity (IC50)
T1 construct: expressed in transfected cells; host or cells: CHO-K1 or CCL39 cells
Method: (§1) Generally, recombinant cells expressing the receptor are washed and homogenized to prepare a crude protein homogenate in a suitable buffer. In a typical assay, an amount of protein from the cell homogenate is placed into a small volume of an appropriate assay buffer at an appropriate pH. Candidate substances, such as potential SRIF agonists and antagonists, are added to the admixture in convenient concentrations, and the interaction between the candidate substance and the receptor polypeptide is monitored.
(§2) In vitro Bioassay: The effects of the various somatostatin analogs were tested in vitro for their ability to bind to isolated cloned receptors expressed on CHO-K1 cells and CCL39 cells. The molecular cloning of the genes encoding multiple somatostatin receptor subtypes permitted the individual expression of these receptors in mammalian cells and the characterization of their respective pharmacological profiles.
(§3) CHO-K1 cells were grown in Ham's F-12 medium, and CCL39 cells were grown in Dulbecco's modified Eagle's medium/Ham's F-12(1:1) mix, supplemented with 10% fetal bovine serum, 100 U/ml penicillin and 100 μg/ml streptomycin, in humidified air containing 5% CO2 at 37° C. Cells were washed twice with and scraped into ice-cold 0.05 M Tris-HCl (pH 7.4), collected by centrifugation, and homogenized using a rotor/stator/system in the same buffer. After centrifugation at 120 g for 5 min at 4° C., the supernatant was collected and centrifuged again at 48,000 g for 30 min at 4° C. The resulting pellet was resuspended in ice-cold Tris buffer, transferred into a microfuge tube, and centrifuged at 20,000 g for 15 min at 4° C. After withdrawal of the supernatant, the membrane pellet was stored at −80° C.
(§4) Receptor autoradiography was performed on 20 μm thick cryostat sections of the membrane pellets, mounted on microscope slides, and then stored at −20° C. […] Increasing concentrations of the unlabeled peptide were used ranging from 0.1-1000 nM. […] IC50 values were calculated after quantification of the data using a computer-assisted image processing system as known in this art.
(§5) The numbers in parentheses indicate the number of times the particular binding test was carried out.
(§6) Receptor autoradiography. Cell membrane pellets were prepared as previously described, and stored at −80° C. Receptor autoradiography was performed on 20-μm thick cryostat (Microm HM 500, Walldorf, Germany) sections of the membrane pellets, mounted on microscope slides, and then stored at −20° C. […] After a brief dip in distilled water to remove excess salts, the sections were dried quickly and exposed for 1 week to Kodak BioMax MR film. IC50 values were calculated after quantification of the data using a computer-assisted image processing system as described previously. […] (Reubi, J. C. “In vitro identification of vasoactive intestinal peptide receptors in human tumors: Implications for tumor imaging.” J. Nucl. Med. 1995, 36, 1846-1853).
(§7) To investigate their ssts binding properties, the peptides were tested for their ability to bind to cryostat sections from membrane pellets of cells expressing the five human ssts (Table 3).

[2] = target: T2, hSSTR4 (Homo sapiens, UniProt P31391)
T2 construct: expressed in transfected cells; host or cells: CHO-K1 or CCL39 cells
Method: as §1, §2, §3, §4, §5, §6, §7

[3] = target: T3, hSSTR5 (Homo sapiens, UniProt P35346); settings: Table 3; mean ± SEM when N ≧ 3; read-out: sst5 binding affinity (IC50)
T3 construct: expressed in transfected cells; host or cells: CHO-K1 or CCL39 cells
Method: as §1, §2, §3, §4, §5, §6, §7

[4] = target: T4, hSSTR3 (Homo sapiens, UniProt P32745); settings: Table 3; mean ± SEM when N ≧ 3; read-out: sst3 binding affinity (IC50)
T4 construct: expressed in transfected cells; host or cells: CHO-K1 or CCL39 cells
Method: as §1, §2, §3, §4, §5, §6, §7

[5] = target: T5, hSSTR2 (Homo sapiens, UniProt P30874); settings: for IC50: Table 3, mean ± SEM when N ≧ 3
T5 construct: expressed in transfected cells; host or cells: CHO-K1 or CCL39 cells
Method: as §1, §2, §3, §4, §5, §6, §7

[6] = Table 3, mean ± SEM when N ≧ 3, read-out: sst4 binding affinity (IC50)
[7] = read-out: sst2 binding affinity (IC50)

T4 sequence (P32745 whole entry): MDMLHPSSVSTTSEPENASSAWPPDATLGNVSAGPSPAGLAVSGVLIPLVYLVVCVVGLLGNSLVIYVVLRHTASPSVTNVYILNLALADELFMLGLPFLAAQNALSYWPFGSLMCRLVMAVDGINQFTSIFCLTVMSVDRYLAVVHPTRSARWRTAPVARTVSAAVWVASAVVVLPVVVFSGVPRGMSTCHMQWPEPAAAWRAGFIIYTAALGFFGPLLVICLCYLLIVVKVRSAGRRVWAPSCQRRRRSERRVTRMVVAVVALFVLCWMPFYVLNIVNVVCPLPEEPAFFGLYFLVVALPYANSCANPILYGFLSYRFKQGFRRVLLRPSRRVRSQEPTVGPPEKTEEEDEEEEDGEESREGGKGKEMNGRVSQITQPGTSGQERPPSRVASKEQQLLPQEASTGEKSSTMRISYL
T1 sequence (P30872 whole entry): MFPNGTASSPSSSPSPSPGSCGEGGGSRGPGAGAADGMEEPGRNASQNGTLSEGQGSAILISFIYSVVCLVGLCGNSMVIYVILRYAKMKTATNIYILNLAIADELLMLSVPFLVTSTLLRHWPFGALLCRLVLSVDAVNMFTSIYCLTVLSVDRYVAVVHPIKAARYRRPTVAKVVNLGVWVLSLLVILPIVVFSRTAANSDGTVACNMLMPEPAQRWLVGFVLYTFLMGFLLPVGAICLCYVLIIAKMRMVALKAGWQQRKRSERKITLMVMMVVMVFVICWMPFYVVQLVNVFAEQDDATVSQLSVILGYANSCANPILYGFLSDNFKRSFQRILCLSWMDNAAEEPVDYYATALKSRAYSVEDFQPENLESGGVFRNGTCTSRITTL
T3 sequence (P35346 whole entry): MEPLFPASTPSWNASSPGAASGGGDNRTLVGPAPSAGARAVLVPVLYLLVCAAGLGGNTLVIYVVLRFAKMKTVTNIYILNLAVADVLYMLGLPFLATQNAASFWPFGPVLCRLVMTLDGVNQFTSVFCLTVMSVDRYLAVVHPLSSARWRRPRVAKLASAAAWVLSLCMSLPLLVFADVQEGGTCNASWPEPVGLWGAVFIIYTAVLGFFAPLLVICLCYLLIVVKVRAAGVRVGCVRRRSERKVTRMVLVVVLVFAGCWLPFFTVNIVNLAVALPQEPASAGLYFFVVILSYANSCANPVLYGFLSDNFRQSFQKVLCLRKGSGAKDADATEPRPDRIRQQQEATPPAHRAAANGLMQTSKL
T5 sequence (P30874 whole entry): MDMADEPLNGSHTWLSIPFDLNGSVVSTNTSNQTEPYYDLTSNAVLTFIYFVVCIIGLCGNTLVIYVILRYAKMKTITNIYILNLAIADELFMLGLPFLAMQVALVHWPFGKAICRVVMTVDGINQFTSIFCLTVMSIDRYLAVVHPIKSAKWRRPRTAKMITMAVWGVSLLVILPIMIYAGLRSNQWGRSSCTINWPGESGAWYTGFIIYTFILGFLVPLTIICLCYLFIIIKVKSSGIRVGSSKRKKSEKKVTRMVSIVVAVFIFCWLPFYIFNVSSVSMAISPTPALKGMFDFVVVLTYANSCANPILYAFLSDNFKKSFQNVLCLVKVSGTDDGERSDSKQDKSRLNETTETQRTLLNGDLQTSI
T2 sequence (P31391 whole entry): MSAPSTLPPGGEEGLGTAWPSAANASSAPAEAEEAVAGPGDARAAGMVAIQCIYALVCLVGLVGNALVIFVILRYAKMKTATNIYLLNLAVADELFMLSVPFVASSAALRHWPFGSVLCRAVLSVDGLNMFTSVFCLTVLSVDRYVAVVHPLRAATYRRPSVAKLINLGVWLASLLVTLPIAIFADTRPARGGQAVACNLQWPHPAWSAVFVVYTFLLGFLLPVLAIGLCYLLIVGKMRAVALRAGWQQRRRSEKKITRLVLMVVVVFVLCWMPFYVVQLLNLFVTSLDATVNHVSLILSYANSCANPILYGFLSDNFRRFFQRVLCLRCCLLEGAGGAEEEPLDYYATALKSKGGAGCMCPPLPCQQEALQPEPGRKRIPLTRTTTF

Row | Compound | IC50 [1] | IC50 [2, 6] | IC50 [3] | IC50 [4] | IC50 [5, 7] | loss of binding affinity for sst2 as compared to 7 [5] | IC50 ([5]; sst2 binding affinity (IC50)) | IC50 [2]
1 | C[C@@H](O)[C@@H]1NC(=O)[C@H](CCCCN)NC(=O)[C@@H](Cc2ccc(NC(N)=O)cc2)NC(=O)[C@H](Cc2ccc(NC(=O)C3CC(=O)NC(=O)N3)cc2)NC(=O)[C@H](NC(=O)[C@@H](N)Cc2ccc([N+](=O)[O-])cc2)CSSC[C@@H](C(=O)N[C@@H](Cc2ccc3ccccc3c2)C(N)=O)NC1=O (stereo partly drawn) [compound 6, H2N-pNO2Phe-c[DCys-Aph(Hor)-DAph(Cbm)-Lys-Thr-Cys]-2Nal-NH2] (H-[Phe(4-NO2)][dC][Phe(4-NH2)](ξDihydroorotoyl)[dPhe(4-NHCONH2)]KTC[2Nal]-NH2; disulfide 2-7) | > 1000 nM | > 1000 nM | > 1000 nM |  |  |  |  | 
2 | C[C@@H](O)[C@@H]1NC(=O)[C@H](CCCCN)NC(=O)[C@H](Cc2c[nH]c3ccc(F)cc23)NC(=O)[C@H](Cc2ccc(NC(N)=O)cc2)NC(=O)[C@H](NC(=O)[C@@H](N)Cc2ccc(Cl)cc2)CSSC[C@@H](C(=O)N[C@@H](Cc2ccc3ccccc3c2)C(N)=O)NC1=O [compound 26, H2N-Cpa-c[DCys-Aph(Cbm)-5F-Trp-Lys-Thr-Cys]-2Nal-NH2] (H-[Phe(4-Cl)][dC][Phe(4-NHCONH2)][Trp(5-F)]KTC[2Nal]-NH2; disulfide 2-7) | > 1000 nM | 905 ± 132 nM | 618 ± 248 nM | 90 ± 11 nM | 23 ± 3.7 nM |  |  | 
3 | C[C@@H](O)[C@@H]1NC(=O)[C@H](CCCCN)NC(=O)[C@@H](Cc2c[nH]c3ccccc23)NC(=O)[C@H](Cc2ccc(NC(=O)NO)cc2)NC(=O)[C@H](NC(=O)[C@@H](N)Cc2ccc(Cl)cc2)CSSC[C@@H](C(=O)N[C@@H](Cc2ccc3ccccc3c2)C(N)=O)NC1=O [compound 24, H2N-Cpa-c[DCys-Aph(CONH—OH)-DTrp-Lys-Thr-Cys]-2Nal-NH2] | > 1000 nM | 813 ± 152 nM | 426 ± 189 nM | 120 ± 45 nM | 9.3 ± 1.4 nM |  |  | 
4 | C[C@@H](O)[C@@H]1NC(=O)[C@H](CCCCN)NC(=O)[C@@H](Cc2c[nH]c3ccccc23)NC(=O)[C@H](Cc2ccc(NC(N)=O)cc2)NC(=O)[C@H](NC(=O)[C@@H](N)Cc2ccc(Cl)cc2)CSSC[C@@H](C(=O)N[C@@H](CC2CCCCC2)C(N)=O)NC1=O [compound 18, H2N-Cpa-c[DCys-Aph(Cbm)-DTrp-Lys-Thr-Cys]-Cha-NH2] | > 1000 nM | > 1000 nM | 247 ± 66 nM | 255 ± 79 nM | 4.1 ± 0.9 nM |  |  | 
5 | C[C@@H](O)[C@@H]1NC(=O)[C@H](CCCCN)NC(=O)[C@@H](Cc2c[nH]c3ccccc23)NC(=O)[C@H](Cc2ccc(NC(N)=O)cc2)NC(=O)[C@H](NC(=O)[C@@H](N)Cc2ccc(Cl)cc2)CSSC[C@@H](C(=O)N[C@@H](Cc2ccc(NC(N)=O)cc2)C(N)=O)NC1=O [compound 21, H2N-Cpa-c[DCys-Aph(Cbm)-DTrp-Lys-Thr-Cys]-Aph(Cbm)-NH2] | > 1000 nM | 551 ± 151 nM | 560 ± 144 nM | 336 ± 46 nM | 15 nM |  |  | 
6 | C[C@@H](O)[C@@H]1NC(=O)[C@H](CCCCN)NC(=O)[C@@H](Cc2c[nH]c3ccccc23)NC(=O)[C@H](Cc2ccc(NC(N)=O)cc2)NC(=O)[C@H](NC(=O)[C@@H](N)Cc2ccc(Cl)cc2)CSSC[C@@H](C(=O)N[C@H](Cc2ccc(NC(N)=O)cc2)C(=O)NCC(=O)O)NC1=O [compound 22, H2N-Cpa-c[DCys-Aph(Cbm)-DTrp-Lys-Thr-Cys]-DAph(Cbm)-GlyOH] (H-[Phe(4-Cl)][dC][Phe(4-NHCONH2)][dW]KTC[dPhe(4-NHCONH2)]G-OH; disulfide 2-7) | > 1000 nM | > 1000 nM | 810 ± 200 nM | 661 ± 115 nM | 52 ± 4.7 nM |  |  | 
7 | CC(C)C[C@@H]1NC(=O)[C@H](NC(=O)[C@@H](N)Cc2ccc(Cl)cc2)CSSC[C@@H](C(=O)N[C@@H](Cc2ccc3ccccc3c2)C(N)=O)NC(=O)[C@H]([C@@H](C)O)NC(=O)[C@H](CCCCN)NC(=O)[C@@H](Cc2c[nH]c3ccccc23)NC1=O [compound 11, H2N-Cpa-c[DCys-Leu-DTrp-Lys-Thr-Cys]-2Nal-NH2] (H-[Phe(4-Cl)][dC]L[dW]KTC[2Nal]-NH2; disulfide 2-7) | > 1000 nM | 908 ± 138 nM | 657 ± 299 nM | 340 ± 77 nM | 58 ± 21 nM | 10 fold |  | 
8 | CONC(=O)Nc1ccc(C[C@@H]2NC(=O)[C@H](NC(=O)[C@@H](N)Cc3ccc(Cl)cc3)CSSC[C@@H](C(=O)N[C@@H](Cc3ccc4ccccc4c3)C(N)=O)NC(=O)[C@H]([C@@H](C)O)NC(=O)[C@H](CCCCN)NC(=O)[C@@H](Cc3c[nH]c4ccccc34)NC2=O)cc1 [compound 23, H2N-Cpa-c[DCys-Aph(CONH—OCH3)-DTrp-Lys-Thr-Cys]-2Nal-NH2] | > 1000 nM | 883 ± 174 nM | 313 ± 35 nM | 157 ± 49 nM | 9.3 ± 0.9 nM |  |  | 
9 | C[C@@H](O)[C@@H]1NC(=O)[C@H](CCCCN)NC(=O)[C@@H](Cc2c[nH]c3ccccc23)NC(=O)[C@H](Cc2ccc(NC(N)=O)cc2)NC(=O)[C@H](NC(=O)[C@H](Cc2ccc(Cl)cc2)NC(N)=O)CSSC[C@@H](C(=O)N[C@@H](Cc2ccc3ccccc3c2)C(N)=O)NC1=O [compound 13, Cbm-Cpa-c[DCys-Aph(Cbm)-DTrp-Lys-Thr-Cys]-2Nal-NH2] (X1-[dC][Phe(4-NHCONH2)][dW]KTC[2Nal]-NH2; disulfide 1-6) | > 1000 nM | 136 ± 7.5 nM | 111 ± 17 nM | 54 ± 15 nM | 23 ± 4.3 nM |  |  | 
10 | C[C@@H](O)[C@@H]1NC(=O)[C@H](CCCCN)NC(=O)[C@@H](Cc2c[nH]c3ccccc23)NC(=O)[C@H](Cc2ccc(NC(N)=O)cc2)NC(=O)[C@H](NC(=O)[C@@H](N)Cc2ccc(Cl)cc2)CSSC[C@@H](C(=O)N[C@H](Cc2ccc(NC(N)=O)cc2)C(N)=O)NC1=O [compound 20, H2N-Cpa-c[DCys-Aph(Cbm)-DTrp-Lys-Thr-Cys]-DAph(Cbm)-NH2] | > 1000 nM | 800 ± 295 nM | 191 ± 49 nM | 328 ± 69 nM | 5.4 nM |  |  | 
11 | C[C@@H](O)[C@@H]1NC(=O)[C@H](CCCCN)NC(=O)[C@@H](Cc2c[nH]c3ccccc23)NC(=O)[C@@H](N(C)C(=O)c2ccccc2)NC(=O)[C@H](NC(=O)[C@@H](N)Cc2ccc(Cl)cc2)CSSC[C@@H](C(=O)N[C@@H](Cc2ccc3ccccc3c2)C(N)=O)NC1=O [compound 10, H2N-Cpa-c[DCys-D-Agl(NMe.benzoyl)-DTrp-Lys-Thr-Cys]-2Nal-NH2] | > 1000 nM |  | 728 ± 272 nM | 102 ± 10 nM |  |  | 158 ± 37 nM | 116 ± 47 nM
